From patent US12414948B2, “Methods” (INTRA-CELLULAR THERAPIES, INC., priority 2022, dated 2025) come the findings set out here.

Assay [1] has as its system serum cytokines IL-1b, IL-6, TNF-alpha, IL-10. Nature of the assay: Serum cytokine protein (Multiplex MSD V-Plex) after LPS and lumateperone. The assay is classed as in vivo, mouse. As to conditions: 2 h. The method, then: (§1) All other reagents are obtained in the highest purity available from Sigma-Aldrich (St. Louis, MO) unless otherwise noted. […] Some rodents are given a cotreatment with a subcutaneous (SC) injection of lipopolysaccharide (LPS, 500 μg/kg; Sigma-Aldrich, ref #0127:B8) diluted in 0.9% injectable saline while control group animals receive injections of all vehicles matching the experimental conditions. […] On day 2, either no injection for naïve rats, or saline or LPS is injected (1 mg/kg, SC).
Tissue Collection. […] Rats are euthanized 18 hours after LPS injection for sample collection. Hippocampi from mice and rats are rapidly dissected under RNAse-free conditions and placed in 1.5 mL Eppendorf tubes. When appropriate, samples are snap frozen in liquid nitrogen prior to storage at −80° C. until further analysis. Trunk blood is collected from mice into serum collection tubes, allowed to clot at room temperature for 1 hour, then centrifuged at 1,500 g for 10 minutes at 4° C.
(§2) Multiplex Assays. In mouse serum, protein levels of IL-1b, IL-6, IL-10 and TNF-alpha are measured using a V-Plex Meso Scale Discovery (MSD) Multiplex spot assay Mouse Neuroinflammation 1 panel (Meso Scale Diagnostics, Rockville, MD). All samples are run in duplicates or triplicates according to manufacturer instructions and analyzed with MSD Discovery Workbench software (Meso Scale Diagnostics).
An additional experimental group receiving an injection with lumateperone alone is included as an additional control. Protein concentration is measured using the Multiplex MSD assay V-Plex technology. Results are expressed in pg/mL, except for IL-6, which is measured in ng/mL.

A further assay concerns Sprague-Dawley rats. Nature of the assay: Reward sniffing test (female urine sniffing test, FUST), LPS-induced anhedonia. It is filed as in vivo, rat. As to conditions: rats given LPS 1 mg/kg SC, label LPS = LPS + Vehicle, label Luma = Luma 1 mg/kg IP 24 h before and 24 h after LPS. The method, then:
as §1
Behavioral Evaluation. All behavioral tests are performed in the morning with adult male Sprague-Dawley rats (n=9-11 per group for the experiments with LPS, and n=13-14 per group for the naïve rats).
Reward Sniffing Test (also known also as female urine sniffing test (FUST)): In this anhedonia-based assay, rats are brought to a well-ventilated testing room under dim lighting. A sterile cotton-tipped applicator is attached to one wall in the home cage for 1 hour to habituate rats to this new object. For the 2 phases of the 5 minute test, rats are first exposed to a new cotton tip dipped in sterile water as a control that is removed at the end of the 5 minutes; 45 minutes later, another cotton tip previously dipped into fresh rat urine collected from females of the same strain is attached to the cage wall. Male behavior is video recorded and latency to first sniff of the cotton tip and total time spent sniffing the cotton-tipped applicator are determined.
In a pilot study, a dose response curve is conducted with varying doses of LPS to select an optimal dose for inducing an anhedonic response in rats. Based on these studies, a SC dose of 1 mg/kg LPS is selected. […] This is followed 24 hours later by an injection of LPS (1 mg/kg; SC). […] Control rats are administered saline instead of LPS and vehicle instead of lumateperone. Anhedonia is assessed using FUST (female urine sniffing test) and measuring latency to sniff the reward combined with time spent sniffing the reward. Latency sniffing water is used as a control. […]

Assay [2] has as its system serum cytokines IL-1b, IL-6, TNF-alpha, IL-10. In words: Serum cytokine protein (Multiplex MSD) after acute restraint stress. It is filed as in vivo, mouse. As to conditions: mice, 2 h restraint stress; Luma 3 mg/kg IP immediately before. The method, then: as §2
Restraint Stress Protocol.
Control mice receive vehicle treatment and are returned to their home cage before sample collection. Protein concentration is measured using the Multiplex MSD assay V-Plex technology, normalized to the control group. Results are expressed in pg/mL.

In assay [3] the test system is hippocampal mRNA (Il1b, Il6, Tnfa, Il10, Cldn5). In words: Hippocampal mRNA (qRT-PCR) after acute restraint stress. The assay is classed as in vivo, mouse. As to conditions: mice, 2 h restraint stress, Luma 3 mg/kg IP. The method, then:
Quantitative Real-Time PCR. Mouse hippocampal tissue is homogenized with glass beads in 1 mL of TRIzol reagent using a BeadBeater (Biospec Products, Bartlesville, OK). Heavy phase-lock gel tubes enabled separation of phases following the addition of 400 μL chloroform to the sample and centrifugation at 12,000 rpm for 10 minutes at room temperature. RNA is extracted using Qiagen Rneasy kit (Qiagen, Hilden, Germany). For cDNA synthesis, 2 μg of total RNA is used (SuperScript IV Reverse Transcriptase; ThermoFisher Scientific, Waltham, MA). The purity and concentration of RNA is measured with a Nanodrop spectrophotometer; the optical density (OD) 260/280 and OD 260/230 are within 1.8-2.3. In the hippocampus, 4 key markers of pro- and anti-inflammatory cytokines and chemokines (Il1b: ID Mm00434228_m1, Tnfa: ID Mm00443258_m1, 116: ID Mm00446190_m1, and I110: ID Mm01288386_m1; ThermoFisher Scientific) are initially chosen for analysis (n=5-12 per group). In subsequent experiments, the transcripts for other markers of inflammation are chosen for analysis including Icam1 (ID Mm00516023_m1; a cell adhesion molecule involved in immune cell migration), Cldn5 (ID Mm00727012_s1; a tight junctions protein), colony stimulating factor 1 (Csf1: ID Mm00432686_m1; a factor that regulates microglia function) and its receptor Csf1r (ID Mm01266652_m1), and the nucleotide binding and oligomerization domain-like receptor family pyrin domain-containing 3 inflammasome complex (Nlrp3: Mm00840904_m1). Gapdh (ID Mm99999915_g1) is chosen as a housekeeping gene. […] All mRNAs are measured by qRT-PCR on ABI Prism 7900HT system using TaqMan Gene Expression Assays. […]
Using similar procedures as described above, serum corticosterone levels and hippocampal Cldn5 mRNA expression are measured as well (corticosterone is measured using a commercial ELISA kit).
On the technique in general: Quantitative PCR measures a nucleic acid by following its amplification.

Where [4] appears, read: LPS 500 μg/kg-challenged mice, label LPS = LPS alone, label Luma = LPS + Luma 3 mg/kg IP.
Where [5] appears, read: relative change normalized to control (Dct method).

Turning to “lipopolysaccharide [LPS, reference compound]”, in assay [1] (setting [4]), the “Serum cytokine concentration IL-1b” value turned out to be 6.27 pg/mL, the “Serum cytokine concentration IL-6” value was 14.52 ng/mL, the “Serum cytokine concentration IL-10” value is listed as 980.4 pg/mL and the “Serum cytokine concentration TNF-alpha” value is 335.3 pg/mL. The “FUST Latency sniffing water” value with Sprague-Dawley rats (control test) was 274.27 s. In the assay with Sprague-Dawley rats, the “FUST Latency sniffing reward” value was determined as 164.2 s and the “FUST Time sniffing reward” value came out at 11.11 s.

For `CN1CCN2c3c(cccc31)[C@@H]1CN(CCCC(=O)c3ccc(F)cc3)CC[C@@H]12` [Luma, lumateperone], in assay [1] (mice, Luma 3 mg/kg IP alone (no LPS)), the “Serum cytokine concentration IL-6” value came to 0.09 ng/mL. For the same compound, the “Serum cytokine concentration IL-1b” value in assay [2] was 0.81 pg/mL. The “Hippocampal mRNA expression Cldn5” value in assay [3] (normalized to control) is given as 0.330. Besides, in assay [3] (setting [5]), the “Hippocampal cytokine mRNA expression IL-1b” value turned out to be 0.39 and the “Hippocampal cytokine mRNA expression IL-6” value is recorded as −0.051.
